Patent publication US20250387388A1, “COMPOUND AS TRK INHIBITOR AND/OR RET INHIBITOR AND USE THEREOF” (Medinno Pharmaceutical Technology (Zhuhai) Co., Ltd., priority 2022, published 2025)

Experiments:
RET = RET (Homo sapiens (Human), UniProt P07949); experiment: Inhibitory activity on RET kinase (HTRF KinEASE-TK); assay type: biochemical; conditions: ATP 16 μM
Description: 3) Formulate 2.5× kinase with 1× kinase reaction buffer.

acne model in rabbits = experiment: Acne model in rabbits (coal tar + Propionibacterium acnes); assay type: in vivo, New Zealand white rabbits; conditions: for Rabbit ear weight: twice per day, topical, 2 weeks; for Serum DHT level / Serum IL-1α level: vs. model (vehicle) group; for Effect on inflammatory factors and acne (conclusion): rabbit, in vivo
Procedure: Modeling: Rabbits were acclimated for 7 days. On the right inner ear canal exit of the rabbits, a 2 cm×2 cm area was treated with 2% coal tar solution once a day, 0.5-1 mL each time, for 26 consecutive days. […] On the 8th day, Propionibacterium acnes was injected intradermally at 3-4 sites on the rabbit ears, 50 μl per rabbit, injected every other day for a total of 5 times. Treatment was started randomly on the 9th day after the last injection.
Rabbits were treated according to their groups. The blank group received no treatment. […] The model group received an equal amount of vehicle treatment, with the same application method and duration as the test drug groups.
Twenty-four hours after the last administration, a 2.8 cm punch was used to prepare ear samples at the application site, and their weight was measured. The ears from the modeling site were fixed with 4% paraformaldehyde, and consecutive sections (3 slices) were taken from the same location for HE staining and histopathological analysis. At the same time, the area of 3 hair follicles and the diameter of 3 sebaceous glands were measured to calculate the average values. Blood was drawn from the heart and centrifuged to obtain serum, and the levels of interleukin-1α (IL-1α), interleukin-6 (IL-6), and dihydrotestosterone (DHT) in serum were determined according to the ELISA kit instructions.
Tissue samples from animal ears were excised, fixed in 4% paraformaldehyde, dehydrated, embedded in paraffin, and sectioned and HE stained for observation of histopathological morphology changes. The tissue samples were fixed in 4% paraformaldehyde at normal temperature and the taken ears tissue was rinsed with running water for several hours, dehydrated through a series of ethanol solutions (70%, 80%, 90%), and then treated with a mixture of pure alcohol and xylene for 15 minutes, followed by xylene I for 15 minutes and xylene II for 15 minutes (until transparent). The tissue was then placed in a mixture of xylene and paraffin at a volume ratio of 1:1 for 15 minutes, followed by immersion with paraffin I and paraffin II each for 50-60 minutes. The tissue was embedded in paraffin and sectioned, and the sections were baked, dewaxed and hydrated in distilled water. The resulting sections were then stained in hematoxylin solution for 3 minutes, differentiated in a hydrochloric acid alcohol solution for 15 seconds, slightly washed, blued in a return blue solution for 15 seconds, rinsed with running water, stained with eosin for 3 minutes, rinsed with running water, dehydrated, cleared, and mounted for microscopic examination.
A double-antibody one-step sandwich Enzyme-linked Immunosorbent Assay (ELISA) ket was used. A capture antibody for the mouse target indicators was pre-coated onto microplate wells, to which samples, standards, and HRP-labeled detection antibodies were added sequentially, followed by incubation and thorough washing. TMB substrate was added for color development, which turned into blue in the presence of peroxidase and then into yellow after acidification. The depth of color was positively correlated with the concentration of the target in the samples. The absorbance (OD450 value) was measured at a wavelength of 450 nm using the microplate reader, and the sample concentration was calculated.

[1] = tested on: ovalbumin-induced asthma model in mice; experiment: Ovalbumin-induced asthma model in mice; assay type: in vivo, Balb/c mice; conditions: nasal administration BID 5 days: MDI-1228 3 mg/kg, MDI-1288 3 mg/kg, MDI-1233 1, 3, 10 mg/kg; for Bronchoalveolar lavage fluid IL-5 expression level / Inflammatory cell count in bronchoalveolar lavage fluid / Lung tissue inflammatory cell infiltration (HE pathology) / Serum IgE expression level: vs. vehicle (model) group, dexamethasone 1 mg/kg gavage QD
Procedure: After 7 days of acclimatization, animals were randomly grouped based on their body weight. The experiment was divided into 8 groups, with 8 mice in each group, as detailed in the table below.
• Preparation of Immunogen: Weigh an appropriate amount of OVA, to which an appropriate amount of PBS was added, to achieve a final concentration of 0.1 mg/ml. Then, an equal volume of aluminum adjuvant was added, and the resulting mixture was mixed well, and stored at 4° C., which was prepared before use. • Preparation of Sensitizer (5% OVA): Weigh an appropriate amount of OVA, to which an appropriate amount of PBS was added, to achieve a final concentration of 5%. The resulting mixture was mixed well, and store it at 4° C. for later use, which was prepared before use. • Preparation of Vehicle: Add 200 μl of Tween 80 to 100 ml of saline, and mix it well. […] Mix it well, and store it at 4° C. for later use. […] Mix it well, and store it at 4° C. for later use. […] Mix it well, and store it at 4° C. for later use. The solution was prepared once every three days.
• Immunization: On days 0, 7, 14, and 21, 200 μl of PBS was injected intraperitoneally for the first group, and 200 μl of (10 μg) OVA/aluminum adjuvant emulsion was injected intraperitoneally for groups 2-8. • Sensitization: From days 28 to 32, the first group of animals was exposed to nebulized PBS in a nebulization box for 20 minutes, and the groups 2-8 were exposed to nebulized 5% OVA in a nebulization box for 20 minutes. And then, they were removed. The sensitization was conducted at 12:30 PM daily. • Administration: The medicine was administrated twice a day at 9 AM and 5 PM via nasal drops. Dexamethasone (Dex) was administered by gavage once a day at 9 AM.
Serum IgE: Blood was collected from the orbits of animals after carbon dioxide euthanasia, and plasma was separated and stored at −40 degrees for plasma IgE detection.
Bronchoalveolar Lavage Fluid (BALF) Cell Count: An appropriate amount of foetal bovine serum was weighted and dissolved in PBS to a final concentration of 1%. After orbital blood collection, the trachea was exposed, and a 1 ml syringe needle was replaced with a mouse gavage needle. 0.8 ml of the lavage fluid was aspirated from the syringe and the lungs were lavaged three times. The lavage fluids were collected, and centrifuged at 1000 rpm for 10 minutes, and the supernatant was collected and stored at −40 degrees Celsius. Cells were resuspended with 1 ml of PBS and counted. 100 ul of centrifuged smear was taken and stained with Diff quick and the number of eosinophils, basophils, lymphocytes and macrophages were recorded.
Bronchoalveolar Lavage Fluid IL-5: Bronchoalveolar lavage fluid was collected to detect IL-5.
Pathological scoring criteria were: • A) 0 points: No lymphocyte infiltration; • B) 1 point: Trace lymphocyte infiltration; • C) 2 points: Mild lymphocyte infiltration; • D) 3 points: Moderate lymphocyte infiltration; • E) 4 points: Severe lymphocyte infiltration; • After scoring, the results were calculated and analyzed.

TRKA = TRKA (Homo sapiens (Human), UniProt P04629); experiment: Inhibitory activity on TRKA (ADP-Glo Kinase Assay)
Sequence of TRKA (P04629 33-796 limits assumed): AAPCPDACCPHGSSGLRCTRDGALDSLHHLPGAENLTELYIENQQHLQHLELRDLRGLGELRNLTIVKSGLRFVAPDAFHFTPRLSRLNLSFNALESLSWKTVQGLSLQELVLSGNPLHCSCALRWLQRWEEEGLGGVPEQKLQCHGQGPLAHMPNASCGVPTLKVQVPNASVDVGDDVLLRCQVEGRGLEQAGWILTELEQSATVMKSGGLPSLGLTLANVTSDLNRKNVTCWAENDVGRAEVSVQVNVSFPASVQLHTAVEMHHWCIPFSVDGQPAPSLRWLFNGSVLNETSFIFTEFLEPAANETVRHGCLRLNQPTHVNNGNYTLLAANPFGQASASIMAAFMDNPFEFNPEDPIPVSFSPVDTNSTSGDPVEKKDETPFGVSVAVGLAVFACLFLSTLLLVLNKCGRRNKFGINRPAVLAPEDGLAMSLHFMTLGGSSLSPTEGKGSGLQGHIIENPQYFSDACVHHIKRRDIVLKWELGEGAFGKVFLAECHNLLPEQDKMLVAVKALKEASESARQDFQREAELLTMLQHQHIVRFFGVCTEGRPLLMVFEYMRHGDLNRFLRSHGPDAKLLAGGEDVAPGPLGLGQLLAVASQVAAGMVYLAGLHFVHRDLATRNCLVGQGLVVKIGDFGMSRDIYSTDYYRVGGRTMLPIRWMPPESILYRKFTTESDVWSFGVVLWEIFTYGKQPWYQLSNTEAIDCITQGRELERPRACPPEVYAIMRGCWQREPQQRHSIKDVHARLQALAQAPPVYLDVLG

Sequence of RET (P07949 29-1114): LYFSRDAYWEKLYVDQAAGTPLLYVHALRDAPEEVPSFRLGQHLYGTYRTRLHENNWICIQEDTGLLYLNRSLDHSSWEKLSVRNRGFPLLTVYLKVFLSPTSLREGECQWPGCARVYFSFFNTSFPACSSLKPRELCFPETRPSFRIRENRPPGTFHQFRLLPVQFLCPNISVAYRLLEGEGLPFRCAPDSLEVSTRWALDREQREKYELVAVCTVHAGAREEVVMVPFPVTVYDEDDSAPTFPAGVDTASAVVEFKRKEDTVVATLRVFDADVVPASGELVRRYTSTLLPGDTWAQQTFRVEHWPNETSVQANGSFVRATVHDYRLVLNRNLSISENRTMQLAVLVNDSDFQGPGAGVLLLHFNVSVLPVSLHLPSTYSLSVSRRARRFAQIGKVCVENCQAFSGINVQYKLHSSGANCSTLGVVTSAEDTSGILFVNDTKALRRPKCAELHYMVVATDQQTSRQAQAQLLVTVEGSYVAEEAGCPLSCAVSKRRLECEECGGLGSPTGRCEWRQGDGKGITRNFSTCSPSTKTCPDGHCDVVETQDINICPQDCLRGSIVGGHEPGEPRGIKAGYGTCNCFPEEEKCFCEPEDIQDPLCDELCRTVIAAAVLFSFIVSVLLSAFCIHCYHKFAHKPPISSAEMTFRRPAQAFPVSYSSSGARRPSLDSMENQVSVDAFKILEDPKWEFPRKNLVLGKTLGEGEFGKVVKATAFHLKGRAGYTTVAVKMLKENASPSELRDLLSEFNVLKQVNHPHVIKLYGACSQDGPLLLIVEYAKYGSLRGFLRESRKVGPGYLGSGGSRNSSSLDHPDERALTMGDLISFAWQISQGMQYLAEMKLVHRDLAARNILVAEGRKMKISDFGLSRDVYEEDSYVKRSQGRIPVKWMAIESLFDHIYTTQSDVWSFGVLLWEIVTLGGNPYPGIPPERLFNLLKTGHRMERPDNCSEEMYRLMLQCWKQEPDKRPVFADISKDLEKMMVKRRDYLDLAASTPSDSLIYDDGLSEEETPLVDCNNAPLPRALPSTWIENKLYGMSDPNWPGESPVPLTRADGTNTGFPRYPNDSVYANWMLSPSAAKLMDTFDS

Row | Structure (SMILES) | IC50 (RET) | Rabbit ear weight (acne model in rabbits; 3 mg/kg each time) | Serum DHT level (acne model in rabbits; 3 mg/kg) | Serum IL-1α level (acne model in rabbits; 3 mg/kg) | Effect on inflammatory factors and acne (conclusion) (acne model in rabbits) | Therapeutic effect on the asthma animal model (lung tissue pathological scoring) [1] | Bronchoalveolar lavage fluid IL-5 expression level [1] | Inflammatory cell count in bronchoalveolar lavage fluid [1] | Lung tissue inflammatory cell infiltration (HE pathology) [1] | Serum IgE expression level [1] | IC50 (TRKA) | Serum IL-1α, IL-6 and DHT levels (acne model in rabbits; 1 mg/kg low-dose) | Hair follicle area (acne model in rabbits; 3 mg/kg) | Ear tissue HE staining (acne model in rabbits; 3 mg/kg medium-dose) | Hair follicle area (acne model in rabbits; 9 mg/kg) | Rabbit ear weight (acne model in rabbits; 9 mg/kg each time) | Serum DHT level (acne model in rabbits; 9 mg/kg) | Serum IL-1α level (acne model in rabbits; 9 mg/kg)
1 | CCc1cc(O)c(F)cc1-c1ccc2c(-c3nc4c([nH]3)CN(C(=O)NCC(O)CCl)C4)n[nH]c2c1 (centres unmarked) [MDI-1288] | 3.43 nM | reduced ear weight | significantly reduced | significantly reduced | reducing the expression of inflammatory factors and improving acne | certain therapeutic effect | significantly reduced the expression of IL-5 | significantly reduced the Inflammatory Cell Count | significantly reduced the lung tissue inflammatory cell infiltration | significantly reduced the expression of IgE | 0.89 nM | – | – | – | – | – | – | –
2 | CCc1cc(O)c(F)cc1-c1ccc2c(-c3nc4c([nH]3)CN(C(=O)N3CC[C@H](O)C3)C4)n[nH]c2c1 [MDI-1228, (S)-(2-(6-(2-ethyl-5-fluoro-4-hydroxyphenyl)-1H-indazol-3-yl)-4,6-dihydropyrrolo[3,4-d]imidazol-5-(1H)-yl)(3-hydroxylpyrrolidin-1-yl)ketone] | 0.62 nM | reduced ear weight | significantly reduced | significantly reduced | reducing the expression of inflammatory factors and improving acne | certain therapeutic effect | significantly reduced the expression of IL-5 | significantly reduced the Inflammatory Cell Count | significantly reduced the lung tissue inflammatory cell infiltration | significantly reduced the expression of IgE | 1.82 nM | a trend of reduction in all three indicators | significantly reduced the enlargement of hair follicles | the best treatment effect | significantly reduced the enlargement of hair follicles | reduced ear weight | significantly reduced | significantly reduced
